{"source": "paper PMC8536644", "about": "“Enigmatic mechanism of the N-vinylpyrrolidone hepatocarcinogenicity in the rat” (Archives of Toxicology, 2021)", "key": {"rat liver": {"test_system": "rat liver", "experiment": "Liver histology, hematoxylin–eosin staining", "format": "in vivo", "description": "HE staining was performed essentially according to Romeis ([2010]), specifically under the following conditions:\nParts of the frozen (− 80 °C) livers from rats treated with 0, 5, 10 or 20 ppm NVP were thawed in formalin (specifically 4% formaldehyde in sodium phosphate buffer pH 7) and left therein for fixation at least 7 days. Subsequently the livers were cut into approximately 4 mm-thick slices, which were dehydrated in increasingly concentrated ethanol (70–100%), washed in xylene and then transferred into fluid paraffin. The livers were put into kassettes with the parts which were foreseen for cutting toward the bottom, the kassettes filled with paraplast (melting point 58–62 °C) and the material left for hardening. From the embedded livers 3- to 6 µm-thick slices were cut by a rotation microtome, then stretched (in a water bath at 45 °C), transferred to a slide and dried overnight at 50 °C. Subsequently the slices were stained with HE and covered with Pertex. The slices were then microscopically evaluated. Structural changes were classified into severity grades 0, 1, 2 and 3."}, "(liver) DNA": {"test_system": "(liver) DNA", "parameters": "method as in Inveresk Research International (IRI) [1986]", "conditions": "male CD rats, i.p. 14C-NVP 150 and 300 mg/kg; ref Inveresk Research International (IRI) [1986]; cited from earlier work"}, "[1]": {"parameters": "method as in ToxCast (comptox.epa.gov dashboard)", "conditions": "ref ToxCast (comptox.epa.gov dashboard); cited from earlier work"}, "Wistar rats": {"test_system": "Wistar rats", "experiment": "Clinical observations and body weight during 5-day inhalation", "protocol": "Eight-week-old male and female Wistar Crl:WI (Han) rats were obtained from Charles River Laboratories, Sulzfeld, Germany and acclimatized for 10 days. They were kept at 20–24 °C at a humidity of 30–70% in groups of six animals in polysulfone cages (Tecniplast) with free access to water and feed (10 mm pellets, Provimi Kliba, Kaiseraugst, Switzerland).\nThe animals were acclimatized to the whole-body exposure chambers for 2 days using the inhalation stream without the test substance. […] Animals were weighed before the 2-day acclimatation to the exposure chambers and subsequently before and after the exposure to the test substance. Animals were killed in the morning after the last exposure period to perform the examinations described further down.\nFor the inhalation experiments, two animals per cage (DK III, Becker & CO., Castrop-Rauxel, Germany) were kept in the glass–steel inhalation chambers (volume approximately 200 L) without access to feed and water. For each test dose a constant amount of NVP was pumped by continuous infusion pumps PHD Ultra (Havard Apparatus, Holliston) to an evaporator (Glasverdampfer BASF, Ludwigshafen, Germany; Thermostat Julabo Labortechnik, Seelbach, Germany). The thus generated vapor was combined with air and introduced into the exposure chamber."}}}
{"smiles": "C=CN1CCCC1=O", "note": "[NVP, N-vinylpyrrolidone]", "values": [{"measurement": "Males without centrilobular hepatocellular fatty change", "setting": "rat liver; 5 ppm, three males examined", "result": "two of three"}, {"measurement": "Animals with low-grade (grade 1) centrilobular hepatocellular fatty change", "setting": "rat liver; 10 ppm, males", "result": "two of three"}, {"measurement": "Animals with grade 1 centrilobular hepatocellular fatty change", "setting": "rat liver; 20 ppm, females", "result": "one of three"}, {"measurement": "Animals with grade 2 centrilobular hepatocellular fatty change", "setting": "rat liver; 20 ppm, females", "result": "one"}, {"measurement": "Animals with high-grade (grade 3) centrilobular hepatocellular fatty change", "setting": "rat liver; 20 ppm, males", "result": "two of three"}, {"measurement": "Binding of NVP or its metabolites to (liver) DNA", "setting": "(liver) DNA", "result": "no binding"}, {"measurement": "Active in vitro assays in ToxCast", "setting": "[1]", "result": "10 out of 847"}, {"measurement": "Mortality during the 5-day exposure", "setting": "Wistar rats; 5, 10, 20 ppm inhalation, male and female", "result": "None of the exposed rats died"}, {"measurement": "Body weight increase", "setting": "Wistar rats; 10 ppm, males, p ≤ 0.05", "result": "reduced"}, {"measurement": "Slightly increased salivation, animals affected", "setting": "Wistar rats; day 2 of exposure", "result": "1 of 48"}, {"measurement": "Red nose effluent, animals affected", "setting": "Wistar rats; days 4 or 5 of exposure", "result": "5 of 48"}]}
